Results from US10570129B2 (Zoetis Services LLC, priority 2015, dated 2020).

Tests used:
Haemonchus contortus L3 = experiment: microbe, parasite or virus in culture; assay type: cell-based; conditions: for minimal effective concentration: Haemonchus contortus, 96 h, read-out: HcL3 Minimal Effective Concentration (MEC)
D. immitis microfilariae = experiment: Dirofilaria immitis, microfilariae (DiMF) in vitro motility assay; assay type: cell-based; conditions: for minimal effective concentration: Dirofilaria immitis, 72 h, read-out: DiMF minimally effective dose (MEC)

Molecule	minimal effective concentration (Haemonchus contortus L3) [µM]	minimal effective concentration (D. immitis microfilariae) [µM]	HcL3 Minimal Effective Concentration (MEC) (Haemonchus contortus L3) [µM]	DiMF minimally effective dose (MEC) (D. immitis microfilariae; decrease in microfilariae motility by subjective visual assessment, observed at 72 hours) [µM]
O=C(NCc1ccnc(Cl)c1)n1c2c(c3c(OC(F)(F)F)cccc31)CN(C/C=C/c1ccc(Cl)cc1)CC2 [Example 354, (E)-2-(3-(4-chlorophenyl)allyl)-N-((2-chloropyridin-4-yl)methyl)-9-(trifluoromethoxy)-1,2,3,4-tetrahydro-5H-pyrido[4,3-b]indole-5-carboxamide]	57.4	18.2	–	–
O=C(NCc1ccnc(Cl)c1)n1c2c(c3cccc(Cl)c31)CN(C/C=C/c1ccc(Cl)cc1)CC2 [Example 267, (E)-6-chloro-2-(3-(4-chlorophenyl)allyl)-N-((2-chloropyridin-4-yl)methyl)-1,2,3,4-tetrahydro-5H-pyrido[4,3-b]indole-5-carboxamide]	> 100	10	–	–
O=C(NCc1ccnc(Cl)c1)n1c2c(c3c(F)cc(C(F)(F)F)cc31)CN(C/C=C/c1ccc(Cl)cc1)CC2 [Example 323, (E)-2-(3-(4-chlorophenyl)allyl)-N-((2-chloropyridin-4-yl)methyl)-9-fluoro-7-(trifluoromethyl)-1,2,3,4-tetrahydro-5H-pyrido[4,3-b]indole-5-carboxamide]	> 100	7.6	–	–
O=C(NCc1cnc(Cl)s1)n1c2c(c3c(OC(F)(F)F)cccc31)CN(C/C=C/c1ccc(Cl)cc1)CC2 [Example 383, (E)-2-(3-(4-chlorophenyl)allyl)-N-((2-chlorothiazol-5-yl)methyl)-9-(trifluoromethoxy)-1,2,3,4-tetrahydro-5H-pyrido[4,3-b]indole-5-carboxamide]	> 100	5.7	–	–
O=C(NCc1ccnc(Cl)c1)n1c2c(c3ccc(OC(F)(F)F)cc31)CN(C/C=C/c1ccc(OC(F)(F)F)cc1)CC2 [Example 360, (E)-N-((2-chloropyridin-4-yl)methyl)-7-(trifluoromethoxy)-2-(3-(4-(trifluoro-methoxy)phenyl)allyl)-1,2,3,4-tetrahydro-5H-pyrido[4,3-b]indole-5-carboxamide]	7.7	13.6	–	–
N#Cc1ccc(/C=C/CN2CCc3c(c4ccc(Br)cc4n3C(=O)NCc3ccnc(Cl)c3)C2)cc1F [Example 438, (E)-7-bromo-N-((2-chloropyridin-4-yl)methyl)-2-(3-(4-cyano-3-fluorophenyl)allyl)-1,2,3,4-tetrahydro-5H-pyrido[4,3-b]indole-5-carboxamide]	> 100	18.2	–	–
O=C(NCc1ccnc(Cl)c1)n1c2c(c3cccc(Cl)c31)CN(C/C=C/c1ccc(F)cc1)CC2 [Example 269, (E)-6-chloro-N-((2-chloropyridin-4-yl)methyl)-2-(3-(4-fluorophenyl)allyl)-1,2,3,4-tetrahydro-5H-pyrido[4,3-b]indole-5-carboxamide]	> 100	3.3	–	–
O=C(NCc1ccnc(Cl)c1)n1c2c(c3cc(F)c(OC(F)(F)F)cc31)CN(C/C=C/c1ccc(F)cc1)CC2 [Example 471, (E)-N-((2-chloropyridin-4-yl)methyl)-8-fluoro-2-(3-(4-fluorophenyl)allyl)-7-(trifluoromethoxy)-1,2,3,4-tetrahydro-5H-pyrido[4,3-b]indole-5-carboxamide]	0.3	10	–	–
CSc1ccc2c(c1)c1c(n2C(=O)NCc2ccnc(Cl)c2)CCN(C/C=C/c2ccc(F)cc2)C1 [Example 448, (E)-N-((2-chloropyridin-4-yl)methyl)-2-(3-(4-fluorophenyl)allyl)-8-(methylthio)-1,2,3,4-tetrahydro-5H-pyrido[4,3-b]indole-5-carboxamide]	1.3	3.3	–	–
N#Cc1ccc2c(c1)c1c(n2C(=O)NCc2ccnc(Cl)c2)CCN(C/C=C/c2ccc(Cl)cc2F)C1 [Example 75, (E)-2-(3-(4-chloro-2-fluorophenyl)allyl)-N-((2-chloropyridin-4-yl)methyl)-8-cyano-1,2,3,4-tetrahydro-5H-pyrido[4,3-b]indole-5-carboxamide]	0.1	10.2	–	–
Cc1cc(/C=C/CN2CCc3c(c4cc(C#N)ccc4n3C(=O)NCc3ccnc(Cl)c3)C2)ccc1Cl [Example 96, (E)-2-(3-(4-chloro-3-methylphenyl)allyl)-N-((2-chloropyridin-4-yl)methyl)-8-cyano-1,2,3,4-tetrahydro-5H-pyrido[4,3-b]indole-5-carboxamide]	0.2	> 100	–	–
O=C(NCc1ccnc(Cl)c1)n1c2c(c3c(C(F)(F)F)cc(F)cc31)CN(C/C=C/c1ccc(Cl)cc1)CC2 [Example 322, (E)-2-(3-(4-chlorophenyl)allyl)-N-((2-chloropyridin-4-yl)methyl)-7-fluoro-9-(trifluoromethyl)-1,2,3,4-tetrahydro-5H-pyrido[4,3-b]indole-5-carboxamide]	5.7	10	–	–
N#Cc1cc2c(cc1Cl)c1c(n2C(=O)NCc2ccnc(Cl)c2)CCN(C/C=C/c2ccc(Cl)cc2)C1 [Example 296, (E)-8-chloro-2-(3-(4-chlorophenyl)allyl)-N-((2-chloropyridin-4-yl)methyl)-7-cyano-1,2,3,4-tetrahydro-5H-pyrido[4,3-b]indole-5-carboxamide]	1	> 100	–	–
O=C(NCc1ccnc(F)c1)n1c2c(c3cc(Br)ccc31)CN(C/C=C/c1ccc(Cl)cc1)CC2 [Example 192, (E)-8-bromo-2-(3-(4-chlorophenyl)allyl)-N-((2-fluoropyridin-4-yl)methyl)-1,2,3,4-tetrahydro-5H-pyrido[4,3-b]indole-5-carboxamide]	0.7	11.5	–	–
O=C(NCc1ccnc(F)c1)n1c2c(c3cc(-c4cccc(Cl)c4)ccc31)CN(C/C=C/c1ccc(Cl)cc1)CC2 [Example 462, (E)-8-(3-chlorophenyl)-2-(3-(4-chlorophenyl)allyl)-N-((2-fluoropyridin-4-yl)methyl)-1,2,3,4-tetrahydro-5H-pyrido[4,3-b]indole-5-carboxamide]	> 100	> 100	–	–
O=C(NCc1cnc(Cl)s1)n1c2c(c3cc(OC(F)(F)F)ccc31)CN(C/C=C/c1ccc(Cl)cc1)CC2 [Example 409, (E)-2-(3-(4-chlorophenyl)allyl)-N-((2-chlorothiazol-5-yl)methyl)-8-(trifluoromethoxy)-1,2,3,4-tetrahydro-5H-pyrido[4,3-b]indole-5-carboxamide]	1	10	–	–
N#Cc1ccc2c3c(n(C(=O)NCc4ccnc(Cl)c4)c2c1)CCN(C/C=C/c1ccncc1)C3 [Example 37, (E)-N-((2-chloropyridin-4-yl)methyl)-7-cyano-2-(3-(pyridin-4-yl)allyl)-1,2,3,4-tetrahydro-5H-pyrido[4,3-b]indole-5-carboxamide]	> 100	33	–	–
O=C(NCc1ccnc(Cl)c1)n1c2c(c3cc(C(F)(F)F)ccc31)CN(C/C=C/c1ccc(OC(F)(F)F)cc1)CC2 [Example 335, (E)-N-((2-chloropyridin-4-yl)methyl)-2-(3-(4-(trifluoromethoxy)phenyl)allyl)-8-(trifluoromethyl)-1,2,3,4-tetrahydro-5H-pyrido[4,3-b]indole-5-carboxamide]	10	24	–	–
O=C(NCc1ccnc(Cl)c1)n1c2c(c3cc(F)c(Cl)cc31)CN(C/C=C/c1cc(F)c(F)c(F)c1)CC2 [Example 301, (E)-7-chloro-N-((2-chloropyridin-4-yl)methyl)-8-fluoro-2-(3-(3,4,5-trifluorophenyl)allyl)-1,2,3,4-tetrahydro-5H-pyrido[4,3-b]indole-5-carboxamide]	0.2	18.2	–	–
O=C(NCc1ccnc(F)c1)n1c2c(c3ccc(OC(F)(F)F)cc31)CN(C/C=C/c1ccc(Cl)c(F)c1)CC2 [Example 369, (E)-2-(3-(4-chloro-3-fluorophenyl)allyl)-N-((2-fluoropyridin-4-yl)methyl)-7-(trifluoromethoxy)-1,2,3,4-tetrahydro-5H-pyrido[4,3-b]indole-5-carboxamide]	1	10	–	–
O=C(NCc1ccnc(Cl)c1)n1c2c(c3ccc(OC(F)(F)F)cc31)CN(C/C=C/c1ccc(F)cc1Cl)CC2 [Example 346, (E)-2-(3-(2-chloro-4-fluorophenyl)allyl)-N-((2-chloropyridin-4-yl)methyl)-7-(trifluoromethoxy)-1,2,3,4-tetrahydro-5H-pyrido[4,3-b]indole-5-carboxamide]	0.5	1.8	–	–
(E)-7,8-dichloro-N-((2-fluoropyridin-4-yl)methyl)-2-(3-(5-(trifluoromethyl)pyridin-2-yl)allyl)-1,2,3,4-tetrahydro-5H-pyrido[4,3-b]indole-5-carboxamide [Example 287]	–	–	0.2	3.3
O=C(NCc1ccnc(F)c1)n1c2c(c3ccc(OC(F)(F)F)cc31)CN(C/C=C/c1ccc(Cl)cc1F)CC2 [Example 371, (E)-2-(3-(4-chloro-2-fluorophenyl)allyl)-N-((2-fluoropyridin-4-yl)methyl)-7-(trifluoromethoxy)-1,2,3,4-tetrahydro-5H-pyrido[4,3-b]indole-5-carboxamide]	1.3	24.5	–	–
O=C(NCc1ccnc(F)c1)n1c2c(c3ccc(OC(F)(F)F)cc31)CN(C/C=C/c1ccc(F)cc1Cl)CC2 [Example 373, (E)-2-(3-(2-chloro-4-fluorophenyl)allyl)-N-((2-fluoropyridin-4-yl)methyl)-7-(trifluoromethoxy)-1,2,3,4-tetrahydro-5H-pyrido[4,3-b]indole-5-carboxamide]	1.8	10	–	–
O=C(NCc1ccnc(Cl)c1)n1c2c(c3cc(N4CCSCC4)ccc31)CN(C/C=C/c1ccc(Cl)c(F)c1)CC2 [Example 510]	> 100	> 100	–	–
